Experimental data: patent US20170216297A1, “EFFICIENT INHIBITION OF HSP27” (TECHNISCHE UNIVERSITAET DRESDEN, priority 2014, published 2017)

How the values were obtained:
U937 cells = experiment: Development of resistance to bortezomib in U937 cells; type: cell-based
Protocol: For this purpose, U937 cells (histiocytic lymphoma) were cultured in DMEM culture medium (+10% FCS) at 37° C., 5% CO2 in an H2O-saturated atmosphere. 100,000 cells/ml were seeded and incubated with the cytostatic agent bortezomib (0.1 ng/ml) and the respective test substance (dosage in the current experiment: 1 μM/L acepromazine). The reference substance, BVDU, was employed at a concentration of 30 μM/L. The cells were in each case passaged before the cell count reached 1,000,000 cells/ml. At each passage, 100,000 cells/ml were again seeded and the dose of the cytostatic agent bortezomib was increased stepwise (0.1 ng/mL or 0.05 ng/mL). The concentration of the test substances remained constant. As a result of the stepwise increase in the dosage of the cytostatic agent, resistance developed in the U937 cells. The development of resistance is prevented or inhibited in the case of a positively tested HSP27 inhibitor. The experiments from Example 6 were repeated in the same way, wherein U937 cells (histiocytic lymphoma) are cultured in DMEM culture medium (+10% FCS) at 37° C., 5% CO2 in an H2O— saturated atmosphere. 100,000 cells/ml were seeded and incubated with an initial concentration of 0.2 ng/ml of the cytostatic agent bortezomib and both without an inhibitor and with acepromazine as an HSP27 inhibitor at a concentration of 1 μM/L. The reference substance, BVDU, was employed at a concentration of 30 μM/L. The cells were passaged in each case before the cell count reached 1,000,000 cells/ml. At each passage, 100,000 cells/ml were again seeded and the dose of the cytostatic agent bortezomib was increased stepwise by 0.1 ng/mL. The concentration of the test substance and the reference substance remained constant. As a result of the stepwise increase in the dosage of the cytostatic agent, resistance developed in the U937 cells. The development of resistance is prevented or inhibited in the case of a positively tested HSP27 inhibitor. The cell line U-937 is a histiocytic lymphoma (DSMZ ACC 5). This cell line also responds to treatment with bortezomib, expresses HSP27 and develops resistance to bortezomib. Bortezomib is not the standard therapy for this lymphoma, but is being discussed as a possible therapeutic agent. U-937 cells were seeded with a cell count of 100,000 cells/ml in each case and regularly passaged. […] At the end of the experiment, 70,000 living cells per ml medium could be detected. For the treatment with 30 μmol/L BVDU, a final cell count of 250,000 cells/ml was detected whereas the final cell count in the culture without the addition of an HSP27 inhibitor amounted to 450,000 cells/ml. As a control, U-937 cells were treated with the respective test substances alone, FIG. 10b.

RPMI-8226 cells = experiment: Development of resistance to bortezomib in RPMI-8226 cells; type: cell-based; conditions: bortezomib 0.2-0.4 ng/ml, plus 0.75 μmol/L inhibitor
Protocol: The cell line RPMI-8226 (DMSZ 402) is a “multiple myeloma” cell line and was chosen because bortezomib is employed as a standard therapy for multiple myeloma. RPMI-8226 cells respond to bortezomib, express HSP27 and develop resistance to Velcade. RPMI-8226 cells were seeded at a cell count of 100,000 cells/ml in each case and regularly passaged. […] In contrast, for RPMI 8226 cells that were treated with 30 μmol/L BVDU, a final cell count of 160,000 cells/ml was detected whereas the final cell count for the culture without the addition of an HSP27 inhibitor amounted to 350,000 cells/ml. As a control, RPMI 8226 cells were treated with the respective test substances alone, FIG. 4b.

SMILES: CC(=O)c1ccc2c(c1)N(CCCN(C)C)c1ccccc1S2 [Acepromazine]
- living cells after the end of the experiment (U937 cells; Example 6, FIG. 2: bortezomib 0.1 to 0.5 ng/ml stepwise, +1 μM inhibitor, without inhibitor 790,000 cells/ml): no living cells were detectable
- development of resistance to bortezomib (U937 cells; Example 6, FIG. 2: bortezomib 0.1 to 0.5 ng/ml, +1 μM inhibitor): no development of resistance occurred
- living cells after the end of the experiment (U937 cells; Example 7, FIG. 3: bortezomib 0.2 to 0.4 ng/ml stepwise, +1 μM inhibitor, without inhibitor 230,000 cells/ml): no living cells were detectable
- development of resistance to bortezomib (U937 cells; Example 7, FIG. 3: bortezomib 0.2 to 0.4 ng/ml, +1 μM inhibitor): no development of resistance occurred
- development of resistance to bortezomib (U937 cells; Examples 17/18: bortezomib 0.1-0.5 ng/ml, plus 0.75 μmol/L inhibitor): significantly inhibited
- development of resistance to bortezomib (RPMI-8226 cells): significantly inhibited
